Laboratory results from patent publication US9314046B2, “Flavor-improving method” (TAKASAGO INTERNATIONAL CORPORATION, priority 2011, dated 2016).

Assay: Evaluation of flavor-improving effects by addition of γ-aminobutyric acid and naringenin (sensory, 3 evaluators)
Type: in vivo
Set-up: key to Evaluation (grade): VP (very poor): worse than base; P (poor): difference from base not acknowledged, insufficient effects; G (good): different from base, favorable flavor; E (excellent): significantly different from base, very favorable flavor
Experimental: (1) Evaluation of Flavor-Improving Effects by Addition of γ-Aminobutyric Acid and Naringenin
To a base of a 0.05% aqueous solution of Rebaudio J-100, γ-aminobutyric acid (product name: 4-amino-n-butyric acid, produced by Nacalai Tesque, Inc.) and naringenin (product name: Naringenin, produced by LKT Laboratories, Inc.) were individually added in the amounts as described in the following table, and the flavor-improving effects thereof were evaluated.

[1] = naringenin alone 0.0010 ppb in base
[2] = naringenin alone 0.0100 ppb in base
[3] = naringenin alone 460.0000 ppb in base

NCCCC(=O)O [GABA, γ-aminobutyric acid]
Evaluation (comment in words) (GABA alone 0.0100 ppb in base): Not different from base | Evaluation (grade) (GABA alone 0.0100 ppb in base): P | Evaluation (comment in words) (GABA alone 0.1000 ppb in base): Not different from base | Evaluation (grade) (GABA alone 0.1000 ppb in base): P | Evaluation (comment in words) (GABA alone 1.0000 ppb in base): Reduced total taste | Evaluation (grade) (GABA alone 1.0000 ppb in base): P | Evaluation (grade) (GABA alone 10.0000 ppb in base): P | Evaluation (grade) (GABA alone 100.0000 ppb in base): P | Evaluation (grade) (GABA alone 500.0000 ppb in base): P | Evaluation (grade) (GABA alone 1000.0000 ppb in base): VP | Evaluation (grade) (GABA alone 10000.0000 ppb in base): VP

O=C1C[C@@H](c2ccc(O)cc2)Oc2cc(O)cc(O)c21 [naringenin]
Evaluation (comment in words) [1]: Not different from base | Evaluation (grade) [1]: P | Evaluation (comment in words) [2]: Not different from base | Evaluation (grade) [2]: P | Evaluation (grade) (naringenin alone 0.1000 ppb in base): P | Evaluation (grade) (naringenin alone 1.0000 ppb in base): P | Evaluation (grade) (naringenin alone 10.0000 ppb in base): P | Evaluation (comment in words) [3]: Bitterness left in mouth | Evaluation (grade) [3]: P | Evaluation (grade) (naringenin alone 1000.0000 ppb in base): P | Evaluation (grade) (naringenin alone 10000.0000 ppb in base): P
